Experimental data: ChEMBL document CHEMBL1201862, “PubChem BioAssay data set” (2004)
Active and inactive are the calls of the source.

Tests used:
[1] = target: T1, Carboxy-terminal domain RNA polymerase II polypeptide A small phosphatase 1 (Homo sapiens, UniProt Q9GZU7); experiment: CTDSP1 inhibitors, concentration-response, biochemical, absorbance readout, ultra-high-throughput screen actives (AID 540297); format: functional
T1 sequence (Q9GZU7 whole entry): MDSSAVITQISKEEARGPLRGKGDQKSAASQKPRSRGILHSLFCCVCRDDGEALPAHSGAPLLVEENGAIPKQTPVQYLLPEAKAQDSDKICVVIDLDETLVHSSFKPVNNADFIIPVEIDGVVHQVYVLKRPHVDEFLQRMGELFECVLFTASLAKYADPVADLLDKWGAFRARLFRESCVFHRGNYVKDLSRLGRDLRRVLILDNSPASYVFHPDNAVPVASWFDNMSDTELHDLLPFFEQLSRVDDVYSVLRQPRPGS

Cytochrome P450 2C19 = Cytochrome P450 2C19 (Homo sapiens, UniProt P33261); experiment: Cytochrome panel assay with activity outcomes. Panel member name: p450-cyp2c19 Compounds with AC50 equal or less than 10 uM are considered active; format: functional; settings: read-out: AC50
H9c2 = experiment: cells; format: functional, cell-based; settings: Rattus norvegicus, H9c2, Myocardium;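 also: confirmatory concentration-response retest of ultra-high-throughput screening hits for modulation of myocardial damage; cell death induced by hydrogen peroxide oxidative stress; compound pretreatment for 60 min then peroxide exposure for 2 h; potency is for protecting the cells against peroxide damage rather than for killing them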
[2] = alpha-synuclein stem-loop luciferase translation blockers – H4 neuroglioma cells, luminescence, confirmation (AID 1988); format: functional, cell-based
[3] = luciferase reporter signal suppression in cells – H4 neuroglioma cells, luminescence, dose response (AID 1990); format: functional, cell-based
[4] = Luminescence Cell-Based Dose Response HTS to Identify Inhibitors of 5'UTR Stem-Loop Driven Prion Protein mRNA Translation in H4 Neuroglioblastoma Cells. [Related pubchem assays: 1827 (Project Summary), 1813 (Primary HTS)]; format: functional
[5] = target: T2, Polyadenylate-binding protein 1 (Homo sapiens, UniProt P11940); experiment: MLLE binding blockers, Cy5 peptide tracer – biochemical, fluorescence polarization, Cy5-PAM2 peptide, secondary, miRNA deadenylation inhibitor project, dose response (AID 602260); format: functional; settings: read-out: IC50_Mean
[6] = target: T2, Polyadenylate-binding protein 1; experiment: MLLE domain peptide-binding blockers, IC50 – biochemical, fluorescence polarization, FITC-PAM2 peptide, dose response (AID 602259); format: functional; settings: read-out: IC50_Mean
[7] = NIH-3T3 fibroblast cytotoxicity, dose response, cytotoxicity control, cell-based, fluorescence, Alamar Blue, secondary assay (AID 2327); format: functional;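 also: NIH-3T3 mouse fibroblasts cultured with fluconazole at 8 µg/mL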
[8] = fluconazole-exposed Candida albicans growth modulators – fluorescence, retest, confirmation (AID 2467); format: functional, cell-based
[9] = DRD fibroblast viability loss – cell-based, non-viral oncogenic, luminescence, dose response (AID 1934); format: functional; settings: Homo sapiens
BJ [10] = experiment: BJ-TERT fibroblast viability loss – cell-based, RAS-independent, luminescence, dose response (AID 1933); format: functional; settings: Homo sapiens
BJ [11] = experiment: cells; format: functional, cell-based; settings: Homo sapiens
BJ [12] = experiment: BJ-TERT-LT-ST fibroblast viability loss – cell-based, RAS-independent, luminescence, dose response (AID 1935); format: functional; settings: Homo sapiens;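 also: BJ fibroblasts immortalized with TERT plus LT and ST oncogenes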

T2 sequence (P11940 whole entry, the tested form may be a part): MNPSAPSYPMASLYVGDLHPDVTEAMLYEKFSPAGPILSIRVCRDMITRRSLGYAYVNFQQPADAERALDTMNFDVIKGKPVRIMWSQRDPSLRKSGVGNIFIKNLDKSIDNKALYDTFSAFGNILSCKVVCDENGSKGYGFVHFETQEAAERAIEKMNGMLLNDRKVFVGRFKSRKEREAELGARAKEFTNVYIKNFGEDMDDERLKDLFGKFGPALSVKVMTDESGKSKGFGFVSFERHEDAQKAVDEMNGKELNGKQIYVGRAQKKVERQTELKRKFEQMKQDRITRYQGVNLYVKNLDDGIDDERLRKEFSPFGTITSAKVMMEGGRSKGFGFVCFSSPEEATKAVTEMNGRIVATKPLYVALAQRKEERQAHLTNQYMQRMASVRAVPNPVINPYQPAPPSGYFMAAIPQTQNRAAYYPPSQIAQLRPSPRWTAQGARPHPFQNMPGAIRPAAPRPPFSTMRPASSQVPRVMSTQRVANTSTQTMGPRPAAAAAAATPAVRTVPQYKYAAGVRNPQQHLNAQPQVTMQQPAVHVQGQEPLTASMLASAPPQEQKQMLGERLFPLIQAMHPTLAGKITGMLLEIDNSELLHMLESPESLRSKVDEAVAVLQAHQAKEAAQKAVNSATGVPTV
Sequence of Cytochrome P450 2C19 (P33261 whole entry): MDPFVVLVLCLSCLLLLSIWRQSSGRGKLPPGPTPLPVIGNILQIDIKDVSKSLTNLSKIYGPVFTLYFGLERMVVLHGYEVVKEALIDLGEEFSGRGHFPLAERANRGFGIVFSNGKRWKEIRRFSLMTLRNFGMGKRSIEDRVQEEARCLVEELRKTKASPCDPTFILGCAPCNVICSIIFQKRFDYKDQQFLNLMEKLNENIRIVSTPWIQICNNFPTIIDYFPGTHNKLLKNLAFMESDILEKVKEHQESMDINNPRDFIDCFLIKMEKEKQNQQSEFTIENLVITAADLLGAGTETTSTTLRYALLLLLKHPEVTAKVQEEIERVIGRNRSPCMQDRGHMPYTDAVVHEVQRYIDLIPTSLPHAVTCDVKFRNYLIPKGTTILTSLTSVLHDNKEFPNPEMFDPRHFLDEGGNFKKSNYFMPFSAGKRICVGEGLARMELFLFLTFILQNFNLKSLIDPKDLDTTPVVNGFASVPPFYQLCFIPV

C[n+]1cn(CC(O)COCc2ccccc2)c2ccccc21 (stereo unspecified)
IC50 [1]: 10.8 µM (active) | AC50 (Cytochrome P450 2C19): 15.8 µM (inconclusive)

Cc1cc(C(=O)N/N=C/c2cc(Br)ccc2OC(=O)c2ccccc2Cl)[nH]n1
IC50 (H9c2): > 79 µM (inactive) | EC50 [2]: > 120 µM (not active) | EC50 [3]: 13.4 µM (active) | EC50 [4]: 18.8 µM (active)

CCOc1cc(S(=O)(=O)n2cc(-c3ccc(F)cc3)c(N)n2)cc(OCC)c1OCC
EC50 [2]: > 120 µM (not active) | EC50 [3]: 15.8 µM (active) | EC50 [4]: > 120 µM (not active)

COc1ccc(CC(=O)NCc2ccc(-n3cccc3)cc2)cc1OC
EC50 [2]: 6.37 µM (active) | EC50 [3]: > 120 µM (not active) | EC50 [4]: 9.97 µM (active)

COc1ccc(OC)c(S(=O)(=O)N2CCN(C(=O)c3cc(C4CC4)nn3-c3ccccc3)CC2)c1
IC50 [5]: > 66 µM (inactive) | IC50 [6]: > 66 µM (inactive)

Fc1ccc(-[n+]2nc(Nc3ccccc3)sc2-c2cccc(Cl)c2Cl)cc1
IC50 [5]: > 66 µM (inactive) | IC50 [6]: > 66 µM (inactive)

COc1ccccc1CNC(=O)COc1cc2c(c3oc(=O)cc(C)c13)CCC(C)(C)O2
EC50 [2]: > 120 µM (not active) | EC50 [3]: 16 µM (active) | EC50 [4]: > 120 µM (not active)

CC(NC(=O)CCc1nnc(-c2ccc(-c3ccccc3)cc2)o1)c1nccs1 (stereo unspecified)
EC50 [4]: 10 µM (active)

NNC(=O)c1nn(-c2ccccc2)cc1O
EC50 [2]: > 120 µM (not active) | EC50 [3]: > 120 µM (not active) | EC50 [4]: > 120 µM (not active)

O=C(CSC1=NCCS1)Nc1ccccc1F
IC50 [5]: > 66 µM (inactive) | IC50 [6]: > 66 µM (inactive)

O=C(NCCNCc1ccccc1)c1ccco1
IC50 [1]: 9.15 µM (active)

O=C(Nc1ccc(NC(=O)c2cccs2)cc1)c1ccc(Br)o1
EC50 [7]: > 160 µM (inconclusive) | EC50 [8]: 2.22 µM (active) | IC50 [1]: 7.45 µM (active)

CCOc1ccc(C(=O)c2cc([N+](=O)[O-])ccc2Cl)cc1
EC50 [9]: > 150 µM (not active) | EC50 (BJ [10]): > 150 µM (not active) | EC50 (BJ [11]): > 150 µM (not active) | EC50 (BJ [12]): > 150 µM (not active)

COc1ccc(/C=C/C(=O)NC(=S)Nc2ccc(S(=O)(=O)Nc3nccnc3OC)cc2)cc1
IC50 [5]: > 66 µM (inactive) | IC50 [6]: > 66 µM (inactive)

COc1cc2c(C#CCO)c(-c3ccc(C#N)cc3)oc(=O)c2cc1OC
IC50 [1]: 8.45 µM (active)
